According to patent US8399681B2, “Substituted aminothiazolone indazoles as estrogen related receptor-alpha modulators” (Janssen Pharmaceutica NV, priority 2009, dated 2013):

Legend:
Zucker fa/fa male rats = experiment: Zucker fa/fa Rat Model Assay; type: in vivo; settings: dosed orally once a day for 4 days, blood collected at day 5
Excerpt: Zucker fa/fa is a monogenic model of frank diabetes due to a mutation on the fa gene truncating the leptin receptor and preventing its interaction with its peptide hormone. This mutation results in a hyperphagic phenotype and the rodent develops obesity, hyperlipidemia, fasting hyperglycemia and insulin resistance. Zucker fa/fa male rats were received at four weeks of age and allowed to acclimate for one week. At five weeks of age the animals were single housed in cages in a temperature-controlled room with 12-hour light/dark cycle. The rats were allowed ad libitum access to water and food and throughout the study were maintained on a Purina 5008 diet. Animals were sorted based primarily on fed insulin levels and circulating triglycerides. Animals were dosed orally once a day in the morning for 4 days. The vehicle used was either 20% HPβCD (Hydroxypropyl Beta Cyclodextrin) or 15% Vitamin E/30% PEG-400 (Polyethylene Glycol 400). Fed insulin and triglycerides were measured using blood collected from the tail vein at day 5. Serum plasma samples were prepared by centrifugation in EDTA (Ethylenediaminetetraacetic acid) containing tubes, transferred into 96 well plates and stored at −80° C.

[1] = biological target: T1, ERR1 (also known as ERR-α or ERR-1) (Homo sapiens, UniProt P11474); experiment: TR-FRET assay (disruption of co-activator peptide binding); type: biochemical; settings: 6His-tagged ERR1 LBD, GST-hSRC2 co-activator polypeptide; average of 3 independent experiments
T1 sequence (P11474 193-421 limits assumed): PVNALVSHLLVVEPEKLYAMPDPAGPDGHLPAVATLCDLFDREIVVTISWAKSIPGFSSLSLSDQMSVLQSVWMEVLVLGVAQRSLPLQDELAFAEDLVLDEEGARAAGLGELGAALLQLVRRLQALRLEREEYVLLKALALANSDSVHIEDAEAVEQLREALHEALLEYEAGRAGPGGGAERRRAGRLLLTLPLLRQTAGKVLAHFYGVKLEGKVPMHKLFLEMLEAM
Summary of the method: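 Compound-induced loss of co-activator recruitment, read by time-resolved FRET (excitation 340 nm; 615 and 665 nm emission) after 4-18 h at 25 °C. Reagents: 6 nM ERR1LBD, 6 nM GST-SRC-2, 30 nM Eu cryptate, 7.5 nM XL665, pH 8 Tris buffer. Values: hyperbolic fits averaged over 3 independent runs.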

Row | Compound | EC50 [1] [nM] | % Lowering Fed Insulin Levels (Zucker fa/fa male rats) [%] | % Lowering Fed Triglyceride Levels (Zucker fa/fa male rats) [%]
1 | COCCN1CCN(C2=NC(=O)/C(=C/c3ccc4c(cnn4Cc4ccc(Cl)cc4C(F)(F)F)c3)S2)CC1 [Example 56, 5-[1-(4-Chloro-2-trifluoromethyl-benzyl)-1H-indazol-5-ylmethylene]-2-[4-(2-methoxy-ethyl)-piperazin-1-yl]-thiazol-4-one] | 15.7 | 70 | 68
2 | O=C1N=C(N2CCC(C(=O)O)CC2)S/C1=C\c1ccc2c(cnn2Cc2ccc(Cl)cc2C(F)(F)F)c1 [Example 39, 1-{5-[1-(4-Chloro-2-trifluoromethyl-benzyl)-1H-indazol-5-ylmethylene]-4-oxo-4,5-dihydro-thiazol-2-yl}-piperidine-4-carboxylic acid] | 3.2 | 58 | 35
3 | O=C1N=C(N2CC(C(=O)O)C2)S/C1=C\c1ccc2c(cnn2Cc2ccc(Cl)cc2C(F)(F)F)c1 [Example 40, 1-{5-[1-(4-Chloro-2-trifluoromethyl-benzyl)-1H-indazol-5-ylmethylene]-4-oxo-4,5-dihydro-thiazol-2-yl}-azetidine-3-carboxylic acid] | 8 | 75 | 60
4 | N[C@@H]1CCN(C2=NC(=O)/C(=C/c3ccc4c(cnn4Cc4ccc(Cl)cc4C(F)(F)F)c3)S2)C1 [Example 62, 2-(3-(R)-Amino-pyrrolidin-1-yl)-5-[1-(4-chloro-2-trifluoromethyl-benzyl)-1H-indazol-5-ylmethylene]-thiazol-4-one] | 17.3 | 48 | 36

More lines, main results first:

Row | EC50 [1] [nM] | Compound | % Lowering Fed Insulin Levels (Zucker fa/fa male rats) [%] | % Lowering Fed Triglyceride Levels (Zucker fa/fa male rats) [%]
5 | 13.3 | CN(C)C(=O)CN1CCN(C2=NC(=O)/C(=C/c3ccc4c(cnn4Cc4ccc(Cl)cc4C(F)(F)F)c3)S2)CC1 [Example 72, 2-(4-{5-[1-(4-Chloro-2-trifluoromethyl-benzyl)-1H-indazol-5-ylmethylene]-4-oxo-4,5-dihydro-thiazol-2-yl}-piperazin-1-yl)-N,N-dimethyl-acetamide] | 62 | 57
6 | 37 | O=C1N=C(N2CCOC[C@H]2CO)S/C1=C\c1ccc2c(cnn2Cc2ccc(C(F)(F)F)cc2C(F)(F)F)c1 [Example 141, 5-[1-(2,4-Bis-trifluoromethyl-benzyl)-1H-indazol-5-ylmethylene]-2-(3(R)-hydroxymethyl-morpholin-4-yl)-thiazol-4-one] | 49 | 76
7 | 25 | O=C1N=C(N2CCC[C@H]2CN2CCCC2)S/C1=C\c1ccc2c(cnn2Cc2ccc(Cl)cc2C(F)(F)F)c1 [Example 64, 5-[1-(4-Chloro-2-trifluoromethyl-benzyl)-1H-indazol-5-ylmethylene]-2-(S)-(2-pyrrolidin-1-ylmethyl-pyrrolidin-1-yl)-thiazol-4-one] | 46 | 51
8 | 13.4 | CN1CCN(C2=NC(=O)/C(=C/c3ccc4c(c3)c(C#N)nn4Cc3ccc(Cl)cc3C(F)(F)F)S2)CC1 [Example 223, 1-[4-Chloro-2-(trifluoromethyl)benzyl]-5-{[2-(4-methylpiperazin-1-yl)-4-oxo-1,3-thiazol-5(4H)-ylidene]methyl}-1H-indazole-3-carbonitrile] | 77 | 85
9 | 10 | O=C1N=C(N2CCNCC(O)C2)S/C1=C\c1ccc2c(cnn2Cc2ccc(Cl)cc2C(F)(F)F)c1 (centres unmarked) [Example 125, 5-[1-(4-Chloro-2-trifluoromethyl-benzyl)-1H-indazol-5-ylmethylene]-2-(6-hydroxy-[1,4]diazepan-1-yl)-thiazol-4-one] | 30 | –
